Source: patent US20250179057A1, “MEK IMMUNE ONCOLOGY INHIBITORS AND THERAPEUTIC USES THEREOF” (Immuneering Corporation, priority 2022, published 2025)
Counter-ions that a name gives are not always drawn.

Tests used:
[1] = Plasma stability, human plasma (K2EDTA); type: in vitro ADME; details: 2 μM; for T1/2 / % Remaining at T120 / half-life at 2 μM: human plasma, anti-coagulant K2-EDTA; for T1/2 / half-life at 2 μM: 10 to 120 min; for % Remaining at T120: 120 min; for half-life at 2 μM: read-out: T1/2
Procedure: (§1) Individual stock solutions of propantheline and lovastatin were prepared at 10 mM in DMSO and were further diluted to 2 mM with DMSO.
(§2) Frozen matrices (Balb/c mouse, Wistar Han rat, Beagle dog, and human plasma containing K2EDTA as anti-coagulant) were thawed and centrifuged at 3100 rpm for 10 minutes at 4° C. to remove particulates. The lipid layer was then removed, and the supernatant was transferred to a new tube without disturbing the pellet. After the matrices were incubated at 37° C. for at least 10 minutes, the pH of each matrix was adjusted to pH 7.4, using 10% phosphoric acid or 1N sodium hydroxide as necessary. Test and control article stock solutions were spiked (2 μL) into matrix (1.998 mL) and mixed to final assay concentration of […]. Duplicate 30-μL aliquots of spiked plasma were transferred to matrix tubes in 96-well plate immediately after spiking for timepoints of 0, 30, 60, 120, 240, and 360 minutes. These tubes were then incubated at 37° C. with shaking and at each timepoint, the corresponding tubes containing samples were quenched with 180 μL of cold acetonitrile containing the internal standards. The quenched samples were vortex-mixed briefly and stored refrigerated. After the final time point (360 minutes), the plates with all quenched samples were vortex-mixed for 10 minutes and then centrifuged at 3100 rpm for 10 minutes at 4° C. to sediment the precipitated protein. The supernatant (50 μL) was transferred to a clean 96-well plate and diluted with 100 μL of water. The plates were stored refrigerated until analysis.
(§3) Data Analysis: Peak area ratios for IS-normalized test article and control article counts were used to calculate the percent remaining relative to the time zero (T0) value. As appropriate, results were plotted and further analyzed to calculate half-life (T1/2) values.
(§4) Mean peak area ratios were used to calculate the % remaining relative to the T0 value:
(§5) In this study, human, cynomolgus monkey, beagle dog, wistar hannover rat, and balb/c plasma stability was determined. Table 28 describes the results of the human plasma stability at 2 μM concentration and anti-coagulant K2-EDTA from 10 to 120 min. Table 29 describes the results of the cynomolgus monkey plasma stability at 2 μM concentration and anti-coagulant K2-EDTA. Table 30 describes the results of the beagle dog plasma stability at 2 μM concentration and anti-coagulant K2-EDTA. Table 31 describes the results of the wistar hannover rat plasma stability at 2 μM concentration and anti-coagulant K2-EDTA. Table 32 describes the results of the balb/c plasma stability at 2 μM concentration and anti-coagulant K2-EDTA.

[2] = Plasma stability, cynomolgus monkey plasma (K2-EDTA); type: in vitro ADME; details: for T1/2 / % Remaining at T120: 2 μM, anti-coagulant K2-EDTA; for % Remaining at T120: 120 min; for half-life at 2 μM: plasma (K2EDTA), pH 7.4, anti-coagulant K2-EDTA
Procedure: as §1, §2, §3, §4, §5

[3] = Plasma stability, beagle dog plasma (K2EDTA); type: in vitro ADME; details: 2 μM; for T1/2 / % Remaining at T120 / half-life at 2 μM: beagle dog plasma, anti-coagulant K2-EDTA; for % Remaining at T120: 120 min; for half-life at 2 μM: read-out: T1/2
Procedure: as §1, §2, §3, §4, §5

[4] = Plasma stability, rat plasma (Wistar Han / wistar hannover; Table 5 head SD Rat); type: in vitro ADME; details: wistar hannover rat plasma, 2 μM, anti-coagulant K2-EDTA; for % Remaining at T120: 120 min; for half-life at 2 μM: pH 7.4, read-out: T1/2
Procedure: as §1, §2, §3, §4, §5

[5] = Plasma stability, mouse plasma (Balb/c; Table 5 head CD-1 Mouse); type: in vitro ADME; details: balb/c plasma, 2 μM, anti-coagulant K2-EDTA; for % Remaining at T120: 120 min; for half-life at 2 μM: mouse, pH 7.4, read-out: T1/2
Procedure: as §1, §2, §3, §4, §5

CYP2C9 = CYP2C9 (Homo sapiens, UniProt P11712); experiment: CYP450 panel inhibition in human liver microsomes, 2C9 (diclofenac); details: for CYP-2C9 (Diclofenac) mean percentage CYP inhibition: human liver microsomes, substrate diclofenac; for inhibition at 30 min, 10 µM: microsomes
CYP2C9, sequence (P11712 whole entry): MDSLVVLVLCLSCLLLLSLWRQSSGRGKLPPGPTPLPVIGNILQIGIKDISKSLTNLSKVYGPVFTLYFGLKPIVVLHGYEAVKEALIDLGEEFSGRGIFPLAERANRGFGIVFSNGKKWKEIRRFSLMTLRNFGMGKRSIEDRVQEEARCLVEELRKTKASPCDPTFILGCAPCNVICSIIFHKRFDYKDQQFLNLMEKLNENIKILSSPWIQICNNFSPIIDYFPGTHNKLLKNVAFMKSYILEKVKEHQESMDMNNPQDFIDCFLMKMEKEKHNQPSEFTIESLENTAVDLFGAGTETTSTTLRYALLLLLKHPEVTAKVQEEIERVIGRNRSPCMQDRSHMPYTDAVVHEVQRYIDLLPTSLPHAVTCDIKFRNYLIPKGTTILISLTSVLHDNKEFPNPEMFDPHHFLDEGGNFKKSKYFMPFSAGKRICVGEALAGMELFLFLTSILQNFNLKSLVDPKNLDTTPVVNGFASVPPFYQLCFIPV
Description: The quenched samples were stored refrigerated.

human hepatocytes = experiment: Hepatocyte stability, human; type: in vitro ADME; details: 2 μM, 0.5 million cells/ml; for % Remaining At T120 / T1/2: 120 min
Procedure: (§6) In this study, human, cynomolgus monkey, beagle dog, wistar hannover rat, and balb/c mouse hepatocyle stability was determined.

[6] = tested on: cynomolgus monkey hepatocytes; experiment: Hepatocyte stability, cynomolgus monkey; type: in vitro ADME; details: 2 μM, 0.5 million cells/ml
Procedure: as §6

beagle dog hepatocytes = experiment: Hepatocyte stability, beagle dog; type: in vitro ADME; details: 2 μM, 0.5 million cells/ml
Procedure: as §6

[7] = tested on: wistar hannover rat hepatocytes; experiment: Hepatocyte stability, wistar hannover rat; type: in vitro ADME; details: 2 μM, 0.5 million cells/ml
Procedure: as §6

balb/c mouse hepatocytes = experiment: Hepatocyte stability, balb/c mouse; type: in vitro ADME; details: 2 μM, 0.5 million cells/ml
Procedure: as §6

## CCCS(=O)(=O)Nc1cccc(Cc2c(CN3CCNCC3)c3cc(Cl)c(OC(=O)N(C)C)cc3oc2=O)c1F [Compound 167]
[1]
  T1/2: 15.8 h
  % Remaining at T120: 84.6%
[2]
  T1/2: >2 h
  % Remaining at T120: 117.3%
[3]
  T1/2: >2 h
  % Remaining at T120: 106.2%
[4]
  T1/2: >2 h
  % Remaining at T120: 106.9%
[5]
  T1/2: >2 h
  % Remaining at T120: 100.5%
CYP2C9; 10 μM
  CYP-2C9 (Diclofenac) mean percentage CYP inhibition: 71.8%
Human hepatocytes
  CLint (L/hr/kg): 1.67 L/h/kg
  CLint (mL/min/kg): 27.9 mL/min/kg
  % Remaining At T120: 53.8%
  T1/2: 2.23 h
[6]
  % Remaining At T120: 29.0%
  CLint (L/hr/kg): 5.02 L/h/kg
  CLint (mL/min/kg): 83.7 mL/min/kg
  T1/2: 1.12 h
Beagle dog hepatocytes
  % Remaining At T120: 17.7%
  CLint (L/hr/kg): 9.31 L/h/kg
  CLint (mL/min/kg): 155 mL/min/kg
  T1/2: 0.8 h
[7]
  % Remaining At T120: 31.0%
  CLint (L/hr/kg): 3.16 L/h/kg
  CLint (mL/min/kg): 52.6 mL/min/kg
  T1/2: 1.18 h
balb/c mouse hepatocytes
  % Remaining At T120: 52.5%
  CLint (L/hr/kg): 7.61 L/h/kg
  CLint (mL/min/kg): 127 mL/min/kg
  T1/2: 2.15 h

## CNS(=O)(=O)Nc1nccc(Cc2c(CN(C)C)c3ccc(OC(=O)N(C)C)cc3oc2=O)c1F [Compound 124]
[1]
  T1/2: 10.5 h
  % Remaining at T120: 85.0%
[2]
  T1/2: 21.32 h
  % Remaining at T120: 95.9%
[3]
  T1/2: 94.15 h
  % Remaining at T120: 101.5%
[4]
  T1/2: >2 h
  % Remaining at T120: 100.3%
[5]
  T1/2: >2 h
  % Remaining at T120: 105.4%
CYP2C9; 10 μM
  CYP-2C9 (Diclofenac) mean percentage CYP inhibition: 65.5%
Human hepatocytes
  CLint (L/hr/kg): 0.953 L/h/kg
  CLint (mL/min/kg): 15.9 mL/min/kg
  % Remaining At T120: 70.3%
  T1/2: 3.93 h
[6]
  % Remaining At T120: 49.2%
  CLint (L/hr/kg): 2.87 L/h/kg
  CLint (mL/min/kg): 47.9 mL/min/kg
  T1/2: 1.95 h
Beagle dog hepatocytes
  % Remaining At T120: 34.4%
  CLint (L/hr/kg): 5.73 L/h/kg
  CLint (mL/min/kg): 95.6 mL/min/kg
  T1/2: 1.3 h
[7]
  % Remaining At T120: 32.2%
  CLint (L/hr/kg): 3.06 L/h/kg
  CLint (mL/min/kg): 51.0 mL/min/kg
  T1/2: 1.22 h
balb/c mouse hepatocytes
  % Remaining At T120: 55.1%
  CLint (L/hr/kg): 7.04 L/h/kg
  CLint (mL/min/kg): 117 mL/min/kg
  T1/2: 2.33 h

## Cn1cnc2c(F)c(Nc3ccc(Br)cc3Cl)c(C(=O)NOCCO)cc21 [Reference-1, Selumetinib]
[1]; human, 2 h, pH 7.4
  Human (% Reamining @2 hour): 98.1%
[3]; beagle, dog, 2 h, pH 7.4
  Beagle Dog (% Reamining @2 hour): 100.4%
CYP2C9; human, 30 min, 10 μM, pH 7.4
  CYP2C9 inhibition: 14.1%

## CCN(C)Cc1c(Cc2cccc(NS(=O)(=O)NC)c2F)c(=O)oc2cc(OC(=O)N(C)C)c(F)cc12 [Compound 238]
[1]
  % Remaining at T120: 95.7%
[1]; pH 7.4
  half-life at 2 μM: 68.6 h
[2]
  % Remaining at T120: 101.1%
  half-life at 2 μM: > 2 h
[3]
  % Remaining at T120: 93.8%
[3]; pH 7.4
  half-life at 2 μM: 23.2 h
[4]
  half-life at 2 μM: 29.8 h
  % Remaining at T120: 95.5%
[5]
  % Remaining at T120: 57.5%
  half-life at 2 μM: 2.67 h
Human hepatocytes
  % Remaining At T120: 27.3%
[6]
  % Remaining At T120: 23.3%
Beagle dog hepatocytes
  % Remaining At T120: 31.1%
[7]
  % Remaining At T120: 23.0%
balb/c mouse hepatocytes
  % Remaining At T120: 57.3%

## CNS(=O)(=O)Nc1cccc(Cc2c(CN3CCNCC3)c3cc(Cl)c(OC(=O)N(C)C)cc3oc2=O)c1Cl [Compound 256, 6-chloro-3-(2-chloro-3-((N-methylsulfamoyl)amino)benzyl)-2-oxo-4-(piperazin-1-ylmethyl)-2H-chromen-7-yl dimethylcarbamate hydrochloride]
[1]
  % Remaining at T120: 84.8%
[1]; pH 7.4
  half-life at 2 μM: 14 h
[2]
  % Remaining at T120: 95.0%
  half-life at 2 μM: 28.5 h
[3]
  % Remaining at T120: 99.4%
[3]; pH 7.4
  half-life at 2 μM: > 2 h
[4]
  half-life at 2 μM: 179 h
  % Remaining at T120: 97.2%
[5]
  % Remaining at T120: 86.8%
  half-life at 2 μM: 9.77 h
CYP2C9; human, pH 7.4
  inhibition at 30 min, 10 µM: 36.5%
Human hepatocytes
  % Remaining At T120: 91.4%
[6]
  % Remaining At T120: 53.9%
Beagle dog hepatocytes
  % Remaining At T120: 62.8%
[7]
  % Remaining At T120: 45.7%
balb/c mouse hepatocytes
  % Remaining At T120: 65.6%

## CCN(C)Cc1c(Cc2cccc(NS(=O)(=O)NC)c2Cl)c(=O)oc2cc(OC(=O)N(C)C)ccc12 [Compound 245, 3-(2-chloro-3-((N-methylsulfamoyl)amino)benzyl)-4-((ethyl(methyl)amino)methyl)-2-oxo-2H-chromen-7-yl dimethylcarbamate]
[1]
  % Remaining at T120: 106.8%
[1]; pH 7.4
  half-life at 2 μM: > 2 h
[2]
  % Remaining at T120: 96.5%
  half-life at 2 μM: 23 h
[3]
  % Remaining at T120: 104.1%
[3]; pH 7.4
  half-life at 2 μM: > 2 h
[4]
  half-life at 2 μM: 32.2 h
  % Remaining at T120: 96.6%
[5]
  % Remaining at T120: 81.9%
  half-life at 2 μM: 7.98 h
CYP2C9; human, pH 7.4
  inhibition at 30 min, 10 µM: 25.8%
Human hepatocytes
  % Remaining At T120: 13.9%
[6]
  % Remaining At T120: 3.3%
Beagle dog hepatocytes
  % Remaining At T120: 23.4%
[7]
  % Remaining At T120: 15.7%
balb/c mouse hepatocytes
  % Remaining At T120: 52.8%

## CNS(=O)(=O)Nc1nccc(Cc2c(C)c3ccc(Oc4ncccn4)cc3oc2=O)c1F [Reference-2, reference compound]
[1]; plasma, 2 hour
  Human (% Reamining @2 hour): 91.1%
[3]; plasma, 2 hour
  Beagle Dog (% Reamining @2 hour): 99.8%
